Assay results: ChEMBL document CHEMBL1201862, “PubChem BioAssay data set” (2004)
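96-well plates; 48 h exposure; 5 concentrations. Endpoints by linear interpolation between flanking doses. Not reached: highest tested concentration assigned. At the GI50, growth is halved.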 The source made the active and inactive calls. Cut-off read from the data, not from the text of the source: active = GI50 up to about 1.1 µM and inactive = higher.

Tests used:
Experiment in all cases: NCI tumour cell line growth inhibition, 48 h
U-251 = system: U-251
KM12 = system: KM12
RXF 393 = system: RXF 393
SNB-19 = system: SNB-19
HCT-15 = system: HCT-15
NCI-H522 = system: NCI-H522
EKVX = system: EKVX
K562 = system: K562
HCT-116 = system: HCT-116
SK-MEL-28 = system: SK-MEL-28
RPMI-8226 = system: RPMI-8226
786-0 = system: 786-0
OVCAR-3 = system: OVCAR-3
OVCAR-5 = system: OVCAR-5
HOP-92 = system: HOP-92
A498 = system: A498

Row | Structure (SMILES) | GI50 (U-251) | GI50 (KM12) | GI50 (RXF 393) | GI50 (SNB-19) | GI50 (HCT-15) | GI50 (NCI-H522) | GI50 (EKVX) | GI50 (K562) | GI50 (HCT-116) | GI50 (SK-MEL-28) | GI50 (RPMI-8226) | GI50 (786-0) | GI50 (OVCAR-3) | GI50 (OVCAR-5) | GI50 (HOP-92) | GI50 (A498)
1 | O=C(CSc1nnc(-c2ccc(/N=C\c3ccc(Cl)cc3)cc2)o1)Nc1ccccc1 | 52 µM (inactive) | > 10 µM (inactive) | 33 µM (inactive) | 53 µM (inactive) | 68.2 µM | 16.9 µM (inactive) | > 100 µM (inactive) | 30.1 µM (inactive) | 16.6 µM (inactive) | 43.6 µM (inactive) | 31.6 µM (inactive) | 21.5 µM (inactive) | – | – | – | –
2 | O=C(O)Cc1cc(=O)oc2cc(O)c(Cl)cc12 | > 100 µM (inactive) | > 100 µM (inactive) | – | > 100 µM (inactive) | > 100 µM | > 100 µM (inactive) | > 100 µM (inactive) | > 100 µM (inactive) | > 100 µM (inactive) | > 100 µM (inactive) | > 100 µM (inactive) | > 100 µM (inactive) | > 100 µM (inactive) | > 100 µM (inactive) | > 100 µM (inactive) | > 100 µM (inactive)
3 | CCc1nc2ccccc2c(=O)n1/N=C(\N=N\c1ccc(Cl)cc1)c1ccccc1 | 26.9 µM (inactive) | 18.2 µM (inactive) | 14.2 µM (inactive) | 23.4 µM (inactive) | 39.6 µM | 20.1 µM (inactive) | 26.1 µM (inactive) | > 10 µM (inactive) | 17.3 µM (inactive) | 32 µM (inactive) | 30.7 µM (inactive) | 23.1 µM (inactive) | 20.7 µM (inactive) | > 100 µM (inactive) | 13.9 µM (inactive) | 26.7 µM (inactive)
4 | CCOC(=O)CCC1(C(=O)OCC)CCCC1=O (stereo unspecified) | > 100 µM (inactive) | > 100 µM (inactive) | > 100 µM (inactive) | > 100 µM (inactive) | 78.3 µM | > 100 µM (inactive) | > 100 µM (inactive) | > 100 µM (inactive) | 68.4 µM (inactive) | > 100 µM (inactive) | 34.4 µM (inactive) | > 100 µM (inactive) | > 100 µM (inactive) | > 100 µM (inactive) | > 100 µM (inactive) | > 100 µM (inactive)
5 | Cc1c(N2CCN(C)CC2)nc2ccc(Cl)cc2c1-c1ccccc1 | 17.3 µM (inactive) | 12.4 µM (inactive) | 15.9 µM (inactive) | 25.2 µM (inactive) | 18.9 µM | 19.9 µM (inactive) | 17.7 µM (inactive) | 14.5 µM (inactive) | 17.8 µM (inactive) | 18 µM (inactive) | 18.9 µM (inactive) | 14.4 µM (inactive) | 24.3 µM (inactive) | – | – | 12.2 µM (inactive)
6 | Cc1ccc(NC(=O)CC(=O)n2nc(-c3ccccc3)c(/N=N\c3ccccc3[N+](=O)[O-])c2-c2ccccc2)cc1 | 52.5 µM (inactive) | > 100 µM (inactive) | 55.1 µM (inactive) | 56.6 µM (inactive) | – | 74.8 µM (inactive) | > 100 µM (inactive) | > 100 µM (inactive) | 70.3 µM (inactive) | > 100 µM (inactive) | > 100 µM (inactive) | 28.4 µM (inactive) | 82.8 µM (inactive) | > 100 µM (inactive) | 28.2 µM (inactive) | –
7 | CC(=O)NC(CCCNC(=O)OCc1ccccc1)C(=O)O (stereo unspecified) | > 100 µM (inactive) | > 100 µM (inactive) | > 100 µM (inactive) | > 100 µM (inactive) | > 100 µM | > 100 µM (inactive) | > 100 µM (inactive) | > 100 µM (inactive) | > 100 µM (inactive) | > 100 µM (inactive) | > 100 µM (inactive) | > 100 µM (inactive) | > 100 µM (inactive) | > 100 µM (inactive) | > 100 µM (inactive) | > 100 µM (inactive)
8 | CC1(O)CCn2c(=O)c3cc4ccccc4cc3c(=O)n2C1O (stereo unspecified) | > 100 µM (inactive) | > 100 µM (inactive) | > 100 µM (inactive) | > 100 µM (inactive) | > 100 µM | 22 µM (inactive) | > 100 µM (inactive) | > 100 µM (inactive) | > 100 µM (inactive) | > 100 µM (inactive) | > 100 µM (inactive) | > 100 µM (inactive) | > 100 µM (inactive) | > 100 µM (inactive) | 79.3 µM (inactive) | –
9 | CC(=O)/C=C\C1CC2C=CC1C2 (stereo unspecified) | 45.4 µM (inactive) | 32.3 µM (inactive) | 63 µM (inactive) | 53.5 µM (inactive) | 22.5 µM | – | 64.9 µM (inactive) | 21.6 µM (inactive) | 15.2 µM (inactive) | – | 23.9 µM (inactive) | 43.1 µM (inactive) | 37.8 µM (inactive) | 53.3 µM (inactive) | 29.2 µM (inactive) | –
10 | C=CCNC(=O)/C=C\C(=O)O | > 100 µM (inactive) | > 100 µM (inactive) | > 100 µM (inactive) | > 100 µM (inactive) | > 100 µM | > 100 µM (inactive) | > 100 µM (inactive) | > 100 µM (inactive) | > 100 µM (inactive) | > 100 µM (inactive) | – | > 100 µM (inactive) | > 100 µM (inactive) | > 100 µM (inactive) | > 100 µM (inactive) | > 100 µM (inactive)
11 | CC(=O)O[C@H]1C(=O)[C@@]2(C)C(C(OC(=O)c3ccccc3)[C@]3(O)CC(OC(=O)C(O)C(NC(=O)c4ccc(C(F)(F)F)cc4)c4ccccc4)C(C)=C1C3(C)C)[C@]1(OC(C)=O)CO[C@@H]1C[C@@H]2O (stereo partly specified) | 0.156 µM (active) | 0.0611 µM (active) | – | 0.861 µM (active) | 4.97 µM | 0.0755 µM (active) | – | 0.108 µM (active) | 0.05 µM (active) | 0.128 µM (active) | 0.0628 µM (active) | 0.64 µM (active) | 0.0757 µM (active) | 0.158 µM (active) | 2.13 µM (inactive) | 1.19 µM (inactive)
12 | O=C(/C=C/c1c(O)ccc2ccccc12)c1ccc2ccccc2c1 | > 100 µM (inactive) | > 100 µM (inactive) | > 100 µM (inactive) | > 100 µM (inactive) | > 100 µM | > 100 µM (inactive) | > 100 µM (inactive) | > 100 µM (inactive) | > 100 µM (inactive) | > 100 µM (inactive) | > 100 µM (inactive) | > 100 µM (inactive) | > 100 µM (inactive) | > 100 µM (inactive) | > 100 µM (inactive) | > 100 µM (inactive)
13 | Cc1nc(C(N)=O)c(N)n1CCN1CCN(C(=O)CCCCCCCCCCNC2NC=Nc3[nH]cnc32)CC1 (stereo unspecified) | > 100 µM (inactive) | 41 µM (inactive) | – | > 100 µM (inactive) | > 100 µM | > 10 µM (inactive) | – | 13.2 µM (inactive) | 43.4 µM (inactive) | 22 µM (inactive) | – | > 100 µM (inactive) | 45.9 µM (inactive) | > 100 µM (inactive) | 16.3 µM (inactive) | > 100 µM (inactive)
14 | COc1c(NC(C)=O)cc(C)cc1NC(C)=O | > 100 µM (inactive) | > 100 µM (inactive) | > 100 µM (inactive) | – | > 100 µM | > 100 µM (inactive) | > 100 µM (inactive) | > 100 µM (inactive) | > 100 µM (inactive) | > 100 µM (inactive) | > 100 µM (inactive) | > 100 µM (inactive) | > 100 µM (inactive) | – | > 100 µM (inactive) | > 100 µM (inactive)
15 | Cc1ccc2nc3cc(C)c(=O)cc-3sc2c1 | 75 µM (inactive) | 54.1 µM (inactive) | – | > 100 µM (inactive) | 52.8 µM | 34.4 µM (inactive) | > 100 µM (inactive) | 13.6 µM (inactive) | > 100 µM (inactive) | > 100 µM (inactive) | – | > 100 µM (inactive) | > 100 µM (inactive) | > 100 µM (inactive) | > 100 µM (inactive) | –
16 | CC(=O)Nc1ccccc1-c1nc2ccccc2nc1C | > 100 µM (inactive) | > 100 µM (inactive) | – | > 100 µM (inactive) | > 100 µM | > 100 µM (inactive) | > 100 µM (inactive) | > 100 µM (inactive) | > 100 µM (inactive) | > 100 µM (inactive) | > 100 µM (inactive) | > 100 µM (inactive) | > 100 µM (inactive) | > 100 µM (inactive) | > 100 µM (inactive) | > 100 µM (inactive)
17 | O=c1[nH]c(C2CCCCC2)nc2cc(Cl)ccc12 | > 100 µM (inactive) | > 100 µM (inactive) | 45.6 µM (inactive) | > 100 µM (inactive) | > 100 µM | > 100 µM (inactive) | > 100 µM (inactive) | > 100 µM (inactive) | > 100 µM (inactive) | > 100 µM (inactive) | > 100 µM (inactive) | 70 µM (inactive) | > 100 µM (inactive) | > 100 µM (inactive) | 44 µM (inactive) | –
18 | NN=C1/C(=C\c2ccccc2)CCC/C1=C/c1ccccc1 | 34.9 µM (inactive) | 34.1 µM (inactive) | 31 µM (inactive) | 44 µM (inactive) | 36.7 µM | 15.4 µM (inactive) | 44.7 µM (inactive) | 20.4 µM (inactive) | 30.8 µM (inactive) | 39.5 µM (inactive) | 16.4 µM (inactive) | 39.5 µM (inactive) | 32.3 µM (inactive) | 94 µM (inactive) | 25.7 µM (inactive) | 29.6 µM (inactive)
19 | COc1ccc(/C=C2\CCCC(C(NO)c3ccc(OC)cc3)C2=NO)cc1 (stereo unspecified) | 62.5 µM (inactive) | 89.5 µM (inactive) | 26.7 µM (inactive) | 61.4 µM (inactive) | 35.6 µM | 27.2 µM (inactive) | 48.8 µM (inactive) | 35.4 µM (inactive) | 35.8 µM (inactive) | 26.9 µM (inactive) | 28.8 µM (inactive) | 29.2 µM (inactive) | 47.3 µM (inactive) | – | – | 36.1 µM (inactive)
